“And” between values parts separate entries of the source, which are not always exact repeats. Identical values can stand only once. One block for each molecule: values may come before it.
System: 695427-040-R-J1-PDC complex spheroid viability
Assay: Anticancer human tumor 695427-040-R-J1-PDC patient-derived colon adenocarcinoma cell line growth inhibition [RAS]
Settings: for viability, T/C: stronger effect = lower value
Method in brief: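 Multi-cell-type spheroids: tumor cells plus HUVEC endothelial cells and mesenchymal stem cells. RAS-pathway inhibitors were combined with targeted agents, each dosed in half-log steps down from clinical Cmax, or from 10 microM when Cmax was unknown.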

[1] = curve of first compound, second compound 0.0316 µM
[2] = curve of first compound, second compound 0.1 µM
[3] = curve of first compound, second compound 0.316 µM
[4] = curve of first compound, second compound 1 µM
[5] = second compound 0.0316 µM, first compound 0.00316 µM
[6] = second compound 0.0316 µM, first compound 0.01 µM
[7] = second compound 0.0316 µM, first compound 0.0316 µM
[8] = second compound 0.0316 µM, first compound 0.1 µM
[9] = second compound 0.0316 µM, first compound 0.316 µM
[10] = second compound 0.0316 µM, first compound 1 µM
[11] = second compound 0.1 µM, first compound 0.00316 µM
[12] = second compound 0.1 µM, first compound 0.01 µM
[13] = second compound 0.1 µM, first compound 0.0316 µM
[14] = second compound 0.1 µM, first compound 0.1 µM
[15] = second compound 0.1 µM, first compound 0.316 µM
[16] = second compound 0.1 µM, first compound 1 µM
[17] = second compound 0.316 µM, first compound 0.00316 µM
[18] = second compound 0.316 µM, first compound 0.01 µM
[19] = second compound 0.316 µM, first compound 0.0316 µM
[20] = second compound 0.316 µM, first compound 0.1 µM
[21] = second compound 0.316 µM, first compound 0.316 µM
[22] = second compound 0.316 µM, first compound 1 µM
[23] = second compound 1 µM, first compound 0.00316 µM
[24] = second compound 1 µM, first compound 0.01 µM
[25] = second compound 1 µM, first compound 0.0316 µM
[26] = second compound 1 µM, first compound 0.1 µM
[27] = second compound 1 µM, first compound 0.316 µM
[28] = second compound 1 µM, first compound 1 µM
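Note: viability read after seven days of drug exposure.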
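Throughout, for viability, T/C: 100% = DMSO vehicle control viability.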

Compound: CCC(CC)c1cc(NC2CCC(N)C2)n2nccc2n1 (configuration not stated)
viability, T/C (compound 0.0316 µM): 104% [middle of 4 runs] | viability, T/C (compound 0.1 µM): 96.3% [middle of 4 runs] | viability, T/C (compound 0.316 µM): 106% (2×) and 127% and 91% | viability, T/C (compound 1 µM): 108% [middle of 4 runs] | viability, T/C (compound 3.16 µM): 15.6% [middle of 4 runs] | viability, T/C (compound 10 µM): 12.6% [middle of 4 runs] | IC50 (curve of compound): 2.17 µM and 1.96 µM and 1.82 µM

Compound: C=CC(=O)N1CCN(c2nc(OCC3CCCN3C)nc3c(F)c(-c4nc(N)cc(C)c4C(F)(F)F)c(Cl)cc23)C(C)C1 (configuration not stated) + C#Cc1c(F)ccc2cc(O)cc(-c3ncc4c(N5CC6CCC(C5)N6)nc(OCC56CCCN5CC(F)C6)nc4c3F)c12
IC50 [1]: > 1 µM | IC50 [2]: > 1 µM | IC50 [3]: > 1 µM | IC50 [4]: > 1 µM | IC50 (curve of first compound, second compound 3.16 µM): 0.498 µM | IC50 (curve of first compound, second compound 10 µM): < 0.00316 µM | viability, T/C [5]: 88.4% | viability, T/C [6]: 104% | viability, T/C [7]: 96.7% | viability, T/C [8]: 95% | viability, T/C [9]: 98.5% | viability, T/C [10]: 92.9% | viability, T/C [11]: 98.4% | viability, T/C [12]: 89.5% | viability, T/C [13]: 98.5% | viability, T/C [14]: 85.5% | viability, T/C [15]: 94.7% | viability, T/C [16]: 83.3% | viability, T/C [17]: 91.6% | viability, T/C [18]: 88% | viability, T/C [19]: 95.5% | viability, T/C [20]: 83.1% | viability, T/C [21]: 89% | viability, T/C [22]: 67% | viability, T/C [23]: 76.2% | viability, T/C [24]: 78.4% | viability, T/C [25]: 67.2% | viability, T/C [26]: 67.3% | viability, T/C [27]: 60.4% | viability, T/C [28]: 58.4% | viability, T/C (second compound 3.16 µM, first compound 0.00316 µM): 56.3% | viability, T/C (second compound 3.16 µM, first compound 0.01 µM): 53% | viability, T/C (second compound 3.16 µM, first compound 0.0316 µM): 62.9% | viability, T/C (second compound 3.16 µM, first compound 0.1 µM): 58.7% | viability, T/C (second compound 3.16 µM, first compound 0.316 µM): 52.6% | viability, T/C (second compound 3.16 µM, first compound 1 µM): 41.5% | viability, T/C (second compound 10 µM, first compound 0.00316 µM): 39.6% | viability, T/C (second compound 10 µM, first compound 0.01 µM): 39.8% | viability, T/C (second compound 10 µM, first compound 0.0316 µM): 37.8% | viability, T/C (second compound 10 µM, first compound 0.1 µM): 45.8% | viability, T/C (second compound 10 µM, first compound 0.316 µM): 38.6% | viability, T/C (second compound 10 µM, first compound 1 µM): 42.8%

Compound: CC1(O)CCCC1n1c(=O)c(C(F)F)cc2cnc(NC3CCN(S(C)(=O)=O)CC3)nc21 (configuration not stated) + CCn1c(-c2cccnc2C(C)OC)c2c3cc(ccc31)N1CCOC(CC(NC(=O)C(C(C)C)N(C)C(=O)C3(F)CCN(C(=O)C#CC(C)(C)N(C)C)CC3)C(=O)N3CCCC(N3)C(=O)OCC(C)(C)C2)C1
IC50 (curve of first compound, second compound 0.000949 µM): > 10 µM | IC50 (curve of first compound, second compound 0.003 µM): > 10 µM | IC50 (curve of first compound, second compound 0.00949 µM): > 10 µM | IC50 (curve of first compound, second compound 0.03 µM): > 10 µM | IC50 (curve of first compound, second compound 0.0949 µM): > 10 µM | IC50 (curve of first compound, second compound 0.3 µM): 9.98 µM | viability, T/C (second compound 0.000949 µM, first compound 0.0316 µM): 102% | viability, T/C (second compound 0.000949 µM, first compound 0.1 µM): 104% | viability, T/C (second compound 0.000949 µM, first compound 0.316 µM): 90.7% | viability, T/C (second compound 0.000949 µM, first compound 1 µM): 104% | viability, T/C (second compound 0.000949 µM, first compound 3.16 µM): 93.1% | viability, T/C (second compound 0.000949 µM, first compound 10 µM): 79.4% | viability, T/C (second compound 0.003 µM, first compound 0.0316 µM): 102% | viability, T/C (second compound 0.003 µM, first compound 0.1 µM): 98.7% | viability, T/C (second compound 0.003 µM, first compound 0.316 µM): 95.9% | viability, T/C (second compound 0.003 µM, first compound 1 µM): 103% | viability, T/C (second compound 0.003 µM, first compound 3.16 µM): 125% | viability, T/C (second compound 0.003 µM, first compound 10 µM): 86.3% | viability, T/C (second compound 0.00949 µM, first compound 0.0316 µM): 108% | viability, T/C (second compound 0.00949 µM, first compound 0.1 µM): 80.8% | viability, T/C (second compound 0.00949 µM, first compound 0.316 µM): 97.5% | viability, T/C (second compound 0.00949 µM, first compound 1 µM): 87.6% | viability, T/C (second compound 0.00949 µM, first compound 3.16 µM): 124% | viability, T/C (second compound 0.00949 µM, first compound 10 µM): 88.6% | viability, T/C (second compound 0.03 µM, first compound 0.0316 µM): 90.2% | viability, T/C (second compound 0.03 µM, first compound 0.1 µM): 80% | viability, T/C (second compound 0.03 µM, first compound 0.316 µM): 81.3% | viability, T/C (second compound 0.03 µM, first compound 1 µM): 97.9% | viability, T/C (second compound 0.03 µM, first compound 3.16 µM): 115% | viability, T/C (second compound 0.03 µM, first compound 10 µM): 73.6% | viability, T/C (second compound 0.0949 µM, first compound 0.0316 µM): 77.3% | viability, T/C (second compound 0.0949 µM, first compound 0.1 µM): 95.7% | viability, T/C (second compound 0.0949 µM, first compound 0.316 µM): 89.4% | viability, T/C (second compound 0.0949 µM, first compound 1 µM): 113% | viability, T/C (second compound 0.0949 µM, first compound 3.16 µM): 124% | viability, T/C (second compound 0.0949 µM, first compound 10 µM): 71.3% | viability, T/C (second compound 0.3 µM, first compound 0.0316 µM): 77% | viability, T/C (second compound 0.3 µM, first compound 0.1 µM): 94% | viability, T/C (second compound 0.3 µM, first compound 0.316 µM): 85% | viability, T/C (second compound 0.3 µM, first compound 1 µM): 95.7% | viability, T/C (second compound 0.3 µM, first compound 3.16 µM): 95.9% | viability, T/C (second compound 0.3 µM, first compound 10 µM): 49.9%

The next lines start with results.

IC50 (compound alone, run of 05/20/2024): > 0.3 µM
Compound: CCn1c(-c2cccnc2C(C)OC)c2c3cc(ccc31)N1CCOC(CC(NC(=O)C(C(C)C)N(C)C(=O)C3(F)CCN(C(=O)C#CC(C)(C)N(C)C)CC3)C(=O)N3CCCC(N3)C(=O)OCC(C)(C)C2)C1 (configuration not stated)
viability, T/C (compound 0.000949 µM): 94% [middle of 8 runs] | viability, T/C (compound 0.03 µM): 95.8% [middle of 8 runs] | viability, T/C (compound 0.0949 µM): 102% [middle of 8 runs]

IC50 (curve of first compound, second compound 0.00316 µM): > 1 µM | IC50 (curve of first compound, second compound 0.01 µM): > 1 µM | IC50 [1]: > 1 µM | IC50 [2]: > 1 µM | IC50 [3]: > 1 µM | IC50 [4]: > 1 µM
Compound: CCN1CCN(Cc2ccc(Nc3ncc(F)c(-c4cc(F)c5nc(C)n(C(C)C)c5c4)n3)nc2)CC1 + C=CC(=O)N1CCN(c2nc(OCC3CCCN3C)nc3c(F)c(-c4nc(N)cc(C)c4C(F)(F)F)c(Cl)cc23)C(C)C1
viability, T/C (second compound 0.00316 µM, first compound 0.00316 µM): 93% | viability, T/C (second compound 0.00316 µM, first compound 0.01 µM): 88.4% | viability, T/C (second compound 0.00316 µM, first compound 0.0316 µM): 88.5% | viability, T/C (second compound 0.00316 µM, first compound 0.1 µM): 88.8% | viability, T/C (second compound 0.00316 µM, first compound 0.316 µM): 101% | viability, T/C (second compound 0.00316 µM, first compound 1 µM): 103% | viability, T/C (second compound 0.01 µM, first compound 0.00316 µM): 107% | viability, T/C (second compound 0.01 µM, first compound 0.01 µM): 92.2% | viability, T/C (second compound 0.01 µM, first compound 0.0316 µM): 94.1% | viability, T/C (second compound 0.01 µM, first compound 0.1 µM): 92.4% | viability, T/C (second compound 0.01 µM, first compound 0.316 µM): 101% | viability, T/C (second compound 0.01 µM, first compound 1 µM): 108% | viability, T/C [5]: 106% | viability, T/C [6]: 96.3% | viability, T/C [7]: 95.3% | viability, T/C [8]: 91.6% | viability, T/C [9]: 109% | viability, T/C [10]: 105% | viability, T/C [11]: 89% | viability, T/C [12]: 102% | viability, T/C [13]: 90.3% | viability, T/C [14]: 92.1% | viability, T/C [15]: 107% | viability, T/C [16]: 110% | viability, T/C [17]: 95.5% | viability, T/C [18]: 94.3% | viability, T/C [19]: 96.7% | viability, T/C [20]: 94.7% | viability, T/C [21]: 101% | viability, T/C [22]: 97% | viability, T/C [23]: 94.8% | viability, T/C [24]: 85.6% | viability, T/C [25]: 93.7% | viability, T/C [26]: 96.6% | viability, T/C [27]: 99% | viability, T/C [28]: 94.8%

Reference: PubChem BioAssay AID2060888 (Molecular Pharmacology Branch, DTP, NCI, 2025)
